Read-outs that look alike come from different tables or passages of the source.
Columns and labels:
[1] = tested on: Francisella tularensis subsp. novicida Utah 112; assay: microbe, parasite or virus in culture; assay type: cell-based; conditions: for EC50: read-out: EC50, growth inhibition
FtIspD [2] = assay type: biochemical, Francisella tularensis
FtIspD [3] = assay type: biochemical, Francisella tularensis; remark: listed apart in the source
Y. pestis IspC (YpIspC) = Y. pestis IspC (YpIspC) (Yersinia pestis, UniProt Q8ZH62); assay: biochemical; conditions: for % Residual Activity: 100 µM; for remaining activity at 100 µM: read-out: % Residual Activity
Sequence of Y. pestis IspC (YpIspC) (Q8ZH62 whole entry, looked up): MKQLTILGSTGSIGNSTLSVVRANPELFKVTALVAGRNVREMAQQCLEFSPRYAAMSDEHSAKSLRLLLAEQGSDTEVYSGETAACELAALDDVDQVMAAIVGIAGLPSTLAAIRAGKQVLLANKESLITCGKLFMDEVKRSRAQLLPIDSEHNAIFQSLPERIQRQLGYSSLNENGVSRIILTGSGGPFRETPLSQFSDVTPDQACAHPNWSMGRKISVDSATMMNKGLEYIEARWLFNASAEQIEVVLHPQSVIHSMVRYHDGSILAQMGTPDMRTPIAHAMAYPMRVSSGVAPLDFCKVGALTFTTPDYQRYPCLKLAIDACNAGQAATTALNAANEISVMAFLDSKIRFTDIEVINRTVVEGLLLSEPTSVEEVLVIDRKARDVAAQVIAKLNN

[4] = literature search; cited from earlier work
[5] = tested on: Yersinia pestis subsp. A1122; assay: microbe, parasite or virus in culture; assay type: cell-based
[6] = tested on: Francisella tularensis subsp. novicida Utah 112; conditions: read-out: EC50, growth inhibition; cited from earlier work
[7] = tested on: Yersinia pestis subsp. A1122; conditions: read-out: EC50, growth inhibition; cited from earlier work
[8] = tested on: F. tularensis IspD (FtIspD); assay type: biochemical, Francisella tularensis
E.coli IspD (EcIspD) = biological target: T1, E.coli IspD (EcIspD) (Escherichia coli, UniProt Q46893); assay: Secondary screen, cuvette-based assay with EcIspD; assay type: biochemical
T1 sequence (Q46893 1-236): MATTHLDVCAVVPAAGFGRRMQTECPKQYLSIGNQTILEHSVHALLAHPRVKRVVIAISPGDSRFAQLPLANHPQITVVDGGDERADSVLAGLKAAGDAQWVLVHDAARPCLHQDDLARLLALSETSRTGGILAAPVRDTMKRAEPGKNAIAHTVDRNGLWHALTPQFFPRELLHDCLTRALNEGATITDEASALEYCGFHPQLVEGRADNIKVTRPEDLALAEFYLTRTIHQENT

CYP34A = conditions: direct competitive inhibitor; cited from earlier work
JNK = conditions: cited from earlier work
PI3K = conditions: competitive inhibitor; cited from earlier work
YpIspC [9] = biological target: T2, YpIspC (Yersinia pestis, UniProt Q8ZH62); assay type: biochemical
T2 sequence (Q8ZH62 whole entry, looked up): as the sequence (Q8ZH62 whole entry, looked up) above

YpIspC [10] = biological target: T2, YpIspC; assay type: biochemical; remark: listed apart in the source
[11] = Yersinia pestis, SUBSP.A1122, read-out: EC50, growth inhibition

NC(Cc1cc(O)c(O)cc1O)C(=O)O (racemic) [6-hydroxy-DL-DOPA]
antibacterial activity in the quaternary screen [1]: failed to show significant antimicrobial activity
mode of inhibition with respect to CTP (FtIspD [2]): competitive
mode of inhibition with respect to MEP (FtIspD [2]): noncompetitive
attenuation of inhibition in the presence of detergent (FtIspD [3]): did not attenuate inhibition

O=C(O)C1=CC(=C(c2ccc(O)c(C(=O)O)c2)c2ccc(O)c(C(=O)O)c2)C=CC1=O [Aurintricarboxylic acid]
antibacterial activity in the quaternary screen [1]: failed to show significant antimicrobial activity

O.Oc1cc(O)c2c(c1)O[C@H](c1ccc(O)c(O)c1)[C@@H](O)C2 [Catechin]
% Residual Activity (Y. pestis IspC (YpIspC)): 96.65%

Cc1cc(N)c2ccccc2[n+]1CCCCCCCCCC[n+]1c(C)cc(N)c2ccccc21.O.[Cl-].[Cl-] [Dequalinium chloride, 1,1′-Decamethylenebis(4-aminoquinaldinium) dichloride hydrate]
hit identification in the primary screen with YpIspC (Y. pestis IspC (YpIspC)): identified as inhibitors of IspC
antibacterial activity in the quaternary screen [1]: significantly inhibit bacterial growth
forming aggregates in solution [4]: forming aggregates in solution
EC50 [5, 11]: > 100 µM

CC(=O)N(O)CCCP(=O)(O)O [FR900098]
EC50 [6]: 23 µM
EC50 [7]: 29 µM

O=C1Nc2ccc(I)cc2C1=Cc1cc(Br)c(O)c(Br)c1 [GW5074, 3-(3,5-Dibromo-4-hydroxybenzylidine-5-iodo-1,3-dihydro-indol-2-one)]
antibacterial activity in the quaternary screen [1]: significantly inhibit bacterial growth
hit identification in the primary screen with FtIspD [8]: identified as inhibitors of FtIspD
residual activity of EcIspD in the secondary screen (E.coli IspD (EcIspD); secondary screen, 100 μM): 47%

COc1cc(/C=C(\C#N)C(=O)c2ccc(O)c(O)c2)cc(I)c1O [I-OMe-Tyrphostin AG 538]
antibacterial activity in the quaternary screen [1]: failed to show significant antimicrobial activity

O=C(Nc1cccc(C(=O)Nc2ccc(S(=O)(=O)O)c3cc(S(=O)(=O)O)cc(S(=O)(=O)O)c23)c1)Nc1cccc(C(=O)Nc2ccc(S(=O)(=O)O)c3cc(S(=O)(=O)O)cc(S(=O)(=O)O)c23)c1 [NF023]
antibacterial activity in the quaternary screen [1]: failed to show significant antimicrobial activity

CCCc1c(-c2ccc(O)cc2)nn(-c2ccc(O)cc2)c1-c1ccc(O)cc1 [PPT, 1,3,5-tris(4-hydroxyphenyl)-4-propyl-1H-pyrazole]
antibacterial activity in the quaternary screen [1]: significantly inhibit bacterial growth
hit identification in the primary screen with FtIspD [8]: identified as inhibitors of FtIspD
remaining activity at 100 µM (E.coli IspD (EcIspD); read-out: residual activity of EcIspD in the secondary screen): 55%

O=c1c(O[C@@H]2O[C@H](CO)[C@H](O)[C@H](O)[C@H]2O)c(-c2ccc(O)c(O)c2)oc2cc(O)cc(O)c12 [Quercetin 3-D-Galactoside]
% Residual Activity (Y. pestis IspC (YpIspC)): 76.779%

O=c1c(O[C@@H]2O[C@H](CO)[C@@H](O)[C@H](O)[C@H]2O)c(-c2ccc(O)c(O)c2)oc2cc(O)cc(O)c12 [Quercetin 3-β-D-glucoside]
% Residual Activity (Y. pestis IspC (YpIspC)): 76.25%

O=c1c(O)c(-c2ccc(O)c(O)c2)oc2cc(O)cc(O)c12 [Quercetin]
remaining activity at 100 µM (Y. pestis IspC (YpIspC)): 4.83%
inhibition at 100 µM (Y. pestis IspC (YpIspC); read-out: inhibition of the catalytic activity of YpIspC): > 95%
residual growth [1]: less than 25%
EC50 ([1]; Francisella tularensis): < 50 µM
EC50 [1]: 36 µM
forming aggregates in solution [4]: forming aggregates in solution
FtIspD activity, % of the uninhibited control [8]: 4%
Ki (CYP34A): 15.4 µM
EC50 [5, 11]: < 50 µM
EC50 ([5]; read-out: EC50, growth inhibition): 29 µM
IC50 (JNK): 1 µM
Kd (PI3K): 0.28 µM

C[C@@H]1O[C@@H](Oc2c(-c3ccc(O)c(O)c3)oc3cc(O)cc(O)c3c2=O)[C@H](O)[C@H](O)[C@H]1O [Quercitrin]
remaining activity at 100 µM (Y. pestis IspC (YpIspC)): 78.2%

CC(=O)c1c(O)c(C)c(O)c(Cc2c(O)c3c(c(C(=O)C=Cc4ccccc4)c2O)OC(C)(C)C=C3)c1O [Rottlerin, 3′-[(8-Cinnamoyl-5,7-dihydroxy-2,2-dimethyl-2H-1-benzopyran-6-yl)methyl]-2′,4′,6′-trihydroxy-5′-methylacetophenone]
antibacterial activity in the quaternary screen [1]: significantly inhibit bacterial growth
forming aggregates in solution [4]: forming aggregates in solution
residual FtIspD activity in the primary screen [8]: 52%

C[n+]1cc2c3c(ccc2c2ccc4cc5c(cc4c21)OCO5)OCO3 [Sanguinarine chloride, 13-Methyl-[1, 3]benzodioxolo[5,6-c]-1,3-dioxolo[4,5-i] phenanthridinium chloride]
aggregating / non-aggregating inhibitor (YpIspC [9]): aggregating inhibitor
dependence of IC50 on enzyme concentration (YpIspC [9]): decreases with a decrease in YpIspC concentration
antibacterial activity in the quaternary screen [1]: significantly inhibit bacterial growth

Cc1ccc(C(=O)Nc2ccc(S(=O)(=O)O)c3cc(S(=O)(=O)O)cc(S(=O)(=O)O)c23)cc1NC(=O)c1cccc(NC(=O)Nc2cccc(C(=O)Nc3cc(C(=O)Nc4ccc(S(=O)(=O)O)c5cc(S(=O)(=O)O)cc(S(=O)(=O)O)c45)ccc3C)c2)c1 [Suramin Hexasodium]
aggregating / non-aggregating inhibitor (YpIspC [9]): non-aggregating
attenuation of inhibition in the presence of detergent (YpIspC [10]): did not attenuate inhibition
antibacterial activity in the quaternary screen [1]: failed to show significant antimicrobial activity

C[C@]12C=CC(=O)C=C1CC[C@@H]1C2=CC[C@]2(C)[C@@H](C(=O)CN3CCN(c4cc(N5CCCC5)nc(N5CCCC5)n4)CC3)CC[C@@H]12.O=C(O)/C=C\C(=O)O [U-74389G maleate]
antibacterial activity in the quaternary screen [1]: failed to show significant antimicrobial activity

COc1ccc2c(c[n+](C)c3c4cc5c(cc4ccc23)OCO5)c1OC.[Cl-] [chelerythrine chloride, 1,2-Dimethoxy-N-methyl(1,3) benzodioxolo(5,6-c)phenanthridinium chloride]
hit identification in the primary screen with YpIspC (Y. pestis IspC (YpIspC)): identified as inhibitors of IspC
antibacterial activity in the quaternary screen [1]: significantly inhibit bacterial growth
EC50 [5, 11]: > 100 µM

Source: article PMC5817008 (Analytical biochemistry, 2017)
